This is an account of results in US20190119298A1, “FUSED 3-PHENYLTETRAMIC ACID DERIVATIVES HAVING HERBICIDAL ACTION” (Bayer CropScience Aktiengesellschaft, priority 2016, published 2019).

Holding throughout (type): in vivo
Experiment [1] deals with Avena fatua. Put plainly: Post-emergence herbicidal effect. The conditions noted are these: one-leaf stage, 320 g/ha, assessed visually after about 3 weeks, 100% = plants have died. As for the experimental part: (§1) AVEFA: Avena fatua Seeds of monocotyledonous and dicotyledonous weed and crop plants are laid out in sandy loam soil in wood-fibre pots, covered with soil and cultivated in a greenhouse under good growth conditions. 2 to 3 weeks after sowing, the test plants are treated at the one-leaf stage. The compounds of the invention, formulated in the form of wettable powders (WP) or as emulsion concentrates (EC), are then sprayed onto the green parts of the plants as aqueous suspension or emulsion at a water application rate equating to 600 to 800 L/ha with addition of 0.2% wetting agent. After the test plants have been left to stand in the greenhouse under optimal growth conditions for about 3 weeks, the action of the preparations is assessed visually in comparison to untreated controls (herbicidal action in percent (%): 100% activity=the plants have died, 0% activity=like control plants).

Experiment [2] concerns Echinochloa crus-galli. Put plainly: Post-emergence herbicidal effect. The conditions noted are these: one-leaf stage, 320 g/ha, assessed visually after about 3 weeks, 100% = plants have died. The protocol:
as §1, with “ECHCG: Echinochloa crus-galli” for “AVEFA: Avena fatua”

Experiment [3] has as its system Alopecurus myosuroides. Put plainly: Post-emergence herbicidal effect. The conditions noted are these: one-leaf stage, 320 g/ha, assessed visually after about 3 weeks, 100% = plants have died. As for the experimental part: as §1, with “ALOMY: Alopecurus myosuroides” for “AVEFA: Avena fatua”
Experiment [4] deals with Alopecurus myosuroides. Put plainly: Pre-emergence herbicidal effect. The conditions noted are these: 320 g/ha, scored visually after 3 weeks vs untreated controls, 100% = plants have died. From the text: (§2) Seeds of monocotyledonous and dicotyledonous weed plants and crop plants are laid out in sandy loam soil in wood-fibre pots and covered with soil. The compounds of the invention, formulated in the form of wettable powders (WP) or as emulsion concentrates (EC), are then applied to the surface of the covering soil as aqueous suspension or emulsion at a water application rate equating to 600 to 800 L/ha with addition of 0.2% wetting agent. After the treatment, the pots are placed in a greenhouse and kept under good growth conditions for the trial plants. The damage to the test plants is scored visually after a test period of 3 weeks by comparison with untreated controls (herbicidal activity in percent (%): 100% activity=the plants have died, 0% activity=like control plants). ALOMY: Alopecurus myosuroides

The subject of experiment [5] is Lolium multiflorum. Put plainly: Post-emergence herbicidal effect. The conditions noted are these: one-leaf stage, 320 g/ha, assessed visually after about 3 weeks, 100% = plants have died. The protocol: as §1, with “LOLMU: Lolium multiflorum” for “AVEFA: Avena fatua”
Experiment [6] deals with Echinochloa crus-galli. Put plainly: Pre-emergence herbicidal effect. The conditions noted are these: 320 g/ha, scored visually after 3 weeks vs untreated controls, 100% = plants have died.
Source text: as §2, with “ECHCG: Echinochloa crus-galli” for “ALOMY: Alopecurus myosuroides”

In experiment [7] the test system is Setaria viridis. Put plainly: Pre-emergence herbicidal effect. The conditions noted are these: 320 g/ha, scored visually after 3 weeks vs untreated controls, 100% = plants have died.
Source text: as §2, with “SETVI: Setaria viridis” for “ALOMY: Alopecurus myosuroides”

The test system of experiment [8] is Setaria viridis. Put plainly: Post-emergence herbicidal effect. The conditions noted are these: one-leaf stage, 320 g/ha, assessed visually after about 3 weeks, 100% = plants have died. As for the experimental part:
as §1, with “SETVI: Setaria viridis” for “AVEFA: Avena fatua”

For experiment [9], the system named is Lolium multiflorum. Put plainly: Pre-emergence herbicidal effect. The note with it: 320 g/ha, scored visually after 3 weeks vs untreated controls, 100% = plants have died.
Source text: as §2, with “LOLMU: Lolium multiflorum” for “ALOMY: Alopecurus myosuroides”

The test system of experiment [10] is Avena fatua. Put plainly: Pre-emergence herbicidal effect. The note with it: 320 g/ha, scored visually after 3 weeks vs untreated controls, 100% = plants have died.
Source text: as §2, with “AVEFA: Avena fatua” for “ALOMY: Alopecurus myosuroides”

Take `CCc1cc(C)cc(C)c1C1=C(O)C2=CCOCCN2C1=O` [Ia-3-2]: in experiment [1], the “Post-emergence effectiveness AVEFA (herbicidal action in percent)” value was determined as 100%. Besides, in experiment [2], the “Post-emergence effectiveness ECHCG (herbicidal action in percent)” value was found to be 100%.
With `CCc1cccc(C)c1C1=C(OC(C)=O)C2CCOCCN2C1=O` (centres unmarked) [Ib-1-15], the “Post-emergence effectiveness AVEFA (herbicidal action in percent)” value in experiment [1] is reported as 100%. Besides, the “Post-emergence effectiveness ALOMY (herbicidal action in percent)” value in experiment [3] stood at 100%. Moreover, the “Pre-emergence action ALOMY (herbicidal activity in percent)” value in [4] is recorded as 100%. In addition, the “Post-emergence effectiveness LOLMU (herbicidal action in percent)” value in experiment [5] turned out to be 100%. Besides, in experiment [2], the “Post-emergence effectiveness ECHCG (herbicidal action in percent)” value is reported as 100%. Further, the “Pre-emergence action ECHCG (herbicidal activity in percent)” value in [6] came out at 100%. The “Pre-emergence action SETVI (herbicidal activity in percent)” value in experiment [7] is 100%. Besides, the “Post-emergence effectiveness SETVI (herbicidal action in percent)” value in experiment [8] is 100%. Moreover, in [9], the “Pre-emergence action LOLMU (herbicidal activity in percent)” value was found to be 100%.
As for `CCOC(=O)OC1=C(c2c(C)cccc2CC)C(=O)N2CCOCCC12` (centres unmarked) [Ib-1-13], in experiment [1], the “Post-emergence effectiveness AVEFA (herbicidal action in percent)” value was 90%. In experiment [3], the “Post-emergence effectiveness ALOMY (herbicidal action in percent)” value amounted to 100%. In addition, the “Pre-emergence action ALOMY (herbicidal activity in percent)” value in [4] is given as 80%. For the same molecule, the “Post-emergence effectiveness LOLMU (herbicidal action in percent)” value in experiment [5] came out at 100%. The “Post-emergence effectiveness ECHCG (herbicidal action in percent)” value in experiment [2] was 100%. Also, the “Pre-emergence action ECHCG (herbicidal activity in percent)” value in experiment [6] was 100%. The “Pre-emergence action SETVI (herbicidal activity in percent)” value in [7] is listed as 100%. The “Post-emergence effectiveness SETVI (herbicidal action in percent)” value in experiment [8] was 100%. Further, the “Pre-emergence action LOLMU (herbicidal activity in percent)” value in [9] came to 100%. Moreover, the “Pre-emergence action AVEFA (herbicidal activity in percent)” value in experiment [10] was determined as 90%.
`Cc1cc(C)c(C2=C(O)C3=CCOCCN3C2=O)c(C)c1` [Ia-3-1]: the “Post-emergence effectiveness AVEFA (herbicidal action in percent)” value in [1] stood at 80%. Further, the “Post-emergence effectiveness ECHCG (herbicidal action in percent)” value in experiment [2] stood at 90%.
With `CCOC(=O)OC1=C(c2c(CC)cc(Cl)cc2OC)C(=O)N2CCOCCC12` (centres unmarked) [Ib-1-17], the “Post-emergence effectiveness AVEFA (herbicidal action in percent)” value in [1] is listed as 100%. In experiment [3], the “Post-emergence effectiveness ALOMY (herbicidal action in percent)” value is on record as 100%. Also, the “Pre-emergence action ALOMY (herbicidal activity in percent)” value in [4] stood at 100%. In experiment [5], the “Post-emergence effectiveness LOLMU (herbicidal action in percent)” value is 100%. In experiment [2], the “Post-emergence effectiveness ECHCG (herbicidal action in percent)” value stood at 100%. Besides, the “Pre-emergence action ECHCG (herbicidal activity in percent)” value in [6] stood at 100%. Moreover, in experiment [7], the “Pre-emergence action SETVI (herbicidal activity in percent)” value was 100%. Moreover, the “Post-emergence effectiveness SETVI (herbicidal action in percent)” value in [8] was 100%. The “Pre-emergence action AVEFA (herbicidal activity in percent)” value in experiment [10] amounted to 100%.
For `Cc1cc(C)c(C2=C(O)C3COCCCN3C2=O)c(C)c1` (racemic) [Ia-2-1], in experiment [1], the “Post-emergence effectiveness AVEFA (herbicidal action in percent)” value is on record as 100%. In addition, the “Post-emergence effectiveness ALOMY (herbicidal action in percent)” value in experiment [3] is on record as 100%. For the same molecule, in [4], the “Pre-emergence action ALOMY (herbicidal activity in percent)” value was found to be 80%. Besides, the “Post-emergence effectiveness LOLMU (herbicidal action in percent)” value in experiment [5] is recorded as 100%. Also, in experiment [2], the “Post-emergence effectiveness ECHCG (herbicidal action in percent)” value was determined as 100%. Moreover, the “Post-emergence effectiveness SETVI (herbicidal action in percent)” value in experiment [8] was determined as 100%. Moreover, the “Pre-emergence action LOLMU (herbicidal activity in percent)” value in experiment [9] was 100%.
`CCc1cc(C)cc(C)c1C1=C(OC(C)=O)C2=CCOCCN2C1=O` [Ib-3-4]: the “Post-emergence effectiveness AVEFA (herbicidal action in percent)” value in experiment [1] worked out at 80%. In [3], the “Post-emergence effectiveness ALOMY (herbicidal action in percent)” value was 90%. In addition, the “Post-emergence effectiveness LOLMU (herbicidal action in percent)” value in experiment [5] is reported as 80%. Further, the “Post-emergence effectiveness ECHCG (herbicidal action in percent)” value in [2] worked out at 90%. In experiment [8], the “Post-emergence effectiveness SETVI (herbicidal action in percent)” value is 100%.
`CCc1cc(Cl)cc(OC)c1C1=C(OC(=O)C(C)(C)C)C2=CCOCCN2C1=O` [Ib-3-10]: the “Post-emergence effectiveness AVEFA (herbicidal action in percent)” value in [1] was 100%. Moreover, the “Post-emergence effectiveness ALOMY (herbicidal action in percent)” value in experiment [3] was found to be 100%. For the same molecule, the “Pre-emergence action ALOMY (herbicidal activity in percent)” value in [4] was determined as 90%. The “Post-emergence effectiveness LOLMU (herbicidal action in percent)” value in experiment [5] is given as 100%. Also, the “Post-emergence effectiveness ECHCG (herbicidal action in percent)” value in [2] is 100%. In [6], the “Pre-emergence action ECHCG (herbicidal activity in percent)” value is recorded as 100%. Further, in [7], the “Pre-emergence action SETVI (herbicidal activity in percent)” value stood at 100%. Moreover, the “Post-emergence effectiveness SETVI (herbicidal action in percent)” value in [8] was determined as 100%. For the same molecule, the “Pre-emergence action LOLMU (herbicidal activity in percent)” value in experiment [9] was found to be 100%.
